ChEMBL document CHEMBL1201862, “PubChem BioAssay data set” (2004)
Calls of active or inactive are those of the source.

How the values were obtained:
Cytochrome P450 2C9 = Cytochrome P450 2C9 (Homo sapiens, UniProt P11712)
Cytochrome P450 1A2 = target: T1, Cytochrome P450 1A2 (Homo sapiens, UniProt P05177);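 note: PubChem cytochrome P450 panel assay, CYP1A2 panel member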
T1 sequence (P05177 whole entry): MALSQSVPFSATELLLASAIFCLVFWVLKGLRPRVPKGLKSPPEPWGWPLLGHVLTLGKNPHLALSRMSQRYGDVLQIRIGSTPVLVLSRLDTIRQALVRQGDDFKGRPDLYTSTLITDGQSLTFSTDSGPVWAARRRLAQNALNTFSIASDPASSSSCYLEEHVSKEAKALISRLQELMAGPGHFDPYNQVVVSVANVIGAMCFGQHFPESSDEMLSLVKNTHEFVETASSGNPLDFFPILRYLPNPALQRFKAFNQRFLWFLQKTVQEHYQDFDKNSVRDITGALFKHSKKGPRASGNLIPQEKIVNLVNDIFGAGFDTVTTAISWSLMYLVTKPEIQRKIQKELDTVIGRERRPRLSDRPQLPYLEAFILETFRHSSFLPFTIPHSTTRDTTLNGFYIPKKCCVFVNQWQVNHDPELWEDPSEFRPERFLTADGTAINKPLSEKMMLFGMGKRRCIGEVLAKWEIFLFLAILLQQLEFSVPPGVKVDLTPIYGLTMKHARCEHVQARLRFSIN

Cytochrome P450 3A4 = Cytochrome P450 3A4 (Homo sapiens, UniProt P08684);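 note: CYP3A4 tested as one member of a cytochrome P450 panel screen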
[1] = target: T2, Endoribonuclease toxin MazF (Escherichia coli K-12, UniProt P0AE70); assay: fluorescent RNA oligo signal without MazF, dose response, counter-screen for MazEF activator project, biochemical, fluorescence, single-stranded RNase substrate (AID 588502); assay type: functional
T2 sequence (P0AE70 whole entry): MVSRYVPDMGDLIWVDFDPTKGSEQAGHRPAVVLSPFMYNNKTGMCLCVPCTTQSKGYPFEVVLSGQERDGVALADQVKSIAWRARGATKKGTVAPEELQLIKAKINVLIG

[2] = target: T2, Endoribonuclease toxin MazF; assay: MazF toxin RNase activators, dose response, biochemical, fluorescence, single-stranded RNA substrate, uHTS hits (AID 588481); assay type: functional
[3] = target: T3, DNA repair protein RAD52 homolog (Homo sapiens, UniProt P43351); assay type: functional, biochemical
T3 sequence (P43351 whole entry): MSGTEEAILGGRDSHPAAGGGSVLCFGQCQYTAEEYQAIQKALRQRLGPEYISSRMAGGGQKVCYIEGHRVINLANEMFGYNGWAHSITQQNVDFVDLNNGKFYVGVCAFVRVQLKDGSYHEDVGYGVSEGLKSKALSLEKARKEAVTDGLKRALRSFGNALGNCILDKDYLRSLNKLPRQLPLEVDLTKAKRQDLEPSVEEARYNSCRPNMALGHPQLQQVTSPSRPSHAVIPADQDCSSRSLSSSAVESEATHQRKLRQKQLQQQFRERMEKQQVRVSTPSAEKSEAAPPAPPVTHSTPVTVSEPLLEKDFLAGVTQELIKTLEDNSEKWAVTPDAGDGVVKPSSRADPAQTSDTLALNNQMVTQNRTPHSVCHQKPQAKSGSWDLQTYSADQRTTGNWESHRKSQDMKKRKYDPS

Bcl-2-related protein A1 = target: T4, Bcl-2-related protein A1 (Mus musculus, UniProt Q07440); assay type: functional;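 note: confirmatory dose–response counterscreen on Bfl-1, used to check hits from a UBC13 polyubiquitin inhibitor campaign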
T4 sequence (Q07440 whole entry): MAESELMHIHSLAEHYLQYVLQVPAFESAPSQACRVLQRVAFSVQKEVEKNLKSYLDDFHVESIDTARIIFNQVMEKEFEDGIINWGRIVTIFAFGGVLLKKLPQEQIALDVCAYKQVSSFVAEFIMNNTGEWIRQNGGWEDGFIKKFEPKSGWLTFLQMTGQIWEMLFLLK

INS1 = assay: beta cell apoptosis inhibitors, cytokine rescue, dose response, luminescence, retest (AID 449756); assay type: functional, cell-based; conditions: Rattus norvegicus;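 note: cell death triggered by IL-1 beta plus TNF-alpha plus IFN-gamma mixture; protective hits raise ATP signal compared with cytokine alone wells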
[4] = target: Heat shock protein HSP 90-alpha (Homo sapiens, UniProt P07900); assay type: functional, organism-based
[5] = target: T5, Apoptotic protease-activating factor 1 (Homo sapiens, UniProt O14727); assay type: functional
T5 sequence (O14727 whole entry): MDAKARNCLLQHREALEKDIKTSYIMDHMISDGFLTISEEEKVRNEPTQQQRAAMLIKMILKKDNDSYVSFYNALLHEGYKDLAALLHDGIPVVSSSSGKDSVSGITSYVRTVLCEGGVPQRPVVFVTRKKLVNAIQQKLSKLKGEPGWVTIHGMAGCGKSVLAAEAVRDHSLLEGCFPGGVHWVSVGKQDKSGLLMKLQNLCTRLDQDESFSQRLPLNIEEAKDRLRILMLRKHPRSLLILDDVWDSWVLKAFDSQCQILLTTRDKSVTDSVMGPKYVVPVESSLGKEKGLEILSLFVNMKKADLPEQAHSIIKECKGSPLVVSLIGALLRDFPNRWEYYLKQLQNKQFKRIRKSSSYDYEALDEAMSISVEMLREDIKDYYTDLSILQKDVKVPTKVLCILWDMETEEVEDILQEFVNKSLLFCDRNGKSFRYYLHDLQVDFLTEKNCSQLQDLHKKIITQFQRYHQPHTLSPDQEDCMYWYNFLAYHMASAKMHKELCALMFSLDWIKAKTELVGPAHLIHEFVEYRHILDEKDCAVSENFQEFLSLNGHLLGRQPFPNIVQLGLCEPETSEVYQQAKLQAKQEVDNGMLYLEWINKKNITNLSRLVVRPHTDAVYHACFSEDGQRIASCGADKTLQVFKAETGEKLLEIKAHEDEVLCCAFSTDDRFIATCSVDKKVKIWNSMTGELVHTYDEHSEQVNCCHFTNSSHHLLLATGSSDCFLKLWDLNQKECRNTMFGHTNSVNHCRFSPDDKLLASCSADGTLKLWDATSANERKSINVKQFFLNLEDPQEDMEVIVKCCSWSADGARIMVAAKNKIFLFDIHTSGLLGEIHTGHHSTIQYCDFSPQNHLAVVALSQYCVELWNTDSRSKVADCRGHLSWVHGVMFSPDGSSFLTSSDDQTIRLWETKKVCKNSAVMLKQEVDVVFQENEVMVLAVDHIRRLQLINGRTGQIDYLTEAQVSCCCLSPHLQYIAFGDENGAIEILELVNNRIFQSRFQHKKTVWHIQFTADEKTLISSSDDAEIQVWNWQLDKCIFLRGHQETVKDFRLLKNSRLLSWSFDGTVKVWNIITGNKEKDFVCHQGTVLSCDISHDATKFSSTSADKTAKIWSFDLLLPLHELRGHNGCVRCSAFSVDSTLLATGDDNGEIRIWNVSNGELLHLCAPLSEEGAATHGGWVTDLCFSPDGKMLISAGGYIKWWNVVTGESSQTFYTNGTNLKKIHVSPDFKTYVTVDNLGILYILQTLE

[6] = target: T6, Ubiquitin-conjugating enzyme E2 N (Homo sapiens, UniProt P61088); assay type: functional
T6 sequence (P61088 whole entry): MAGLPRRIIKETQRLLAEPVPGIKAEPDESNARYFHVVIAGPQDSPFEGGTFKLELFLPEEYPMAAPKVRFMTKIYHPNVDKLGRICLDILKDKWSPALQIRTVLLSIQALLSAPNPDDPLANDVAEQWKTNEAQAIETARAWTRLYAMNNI

[7] = target: T6, Ubiquitin-conjugating enzyme E2 N; assay type: functional; remark: listed apart in the source
[8] = target: T7, High affinity choline transporter 1 (Homo sapiens, UniProt Q9GZV3); assay: CHT inhibitors, dose response, cell-based, 5-point CRC, membrane potential dye (AID 504840); assay type: functional
T7 sequence (Q9GZV3 whole entry): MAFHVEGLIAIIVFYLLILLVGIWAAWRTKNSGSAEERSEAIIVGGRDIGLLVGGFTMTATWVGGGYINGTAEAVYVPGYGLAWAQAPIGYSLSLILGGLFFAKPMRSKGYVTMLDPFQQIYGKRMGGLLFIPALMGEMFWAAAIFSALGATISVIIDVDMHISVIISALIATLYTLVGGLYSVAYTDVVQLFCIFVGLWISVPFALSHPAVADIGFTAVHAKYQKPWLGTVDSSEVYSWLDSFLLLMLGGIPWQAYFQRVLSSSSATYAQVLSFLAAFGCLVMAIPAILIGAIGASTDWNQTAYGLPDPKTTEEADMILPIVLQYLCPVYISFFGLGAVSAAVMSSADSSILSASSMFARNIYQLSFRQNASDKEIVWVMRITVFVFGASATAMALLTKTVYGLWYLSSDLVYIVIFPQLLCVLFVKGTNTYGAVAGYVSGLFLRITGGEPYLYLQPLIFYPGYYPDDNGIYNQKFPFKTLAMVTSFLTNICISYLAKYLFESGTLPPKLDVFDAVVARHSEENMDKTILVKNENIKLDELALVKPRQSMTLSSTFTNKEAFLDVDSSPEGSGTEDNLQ

Prothrombin = Prothrombin (Bos taurus, UniProt P00735); assay: thrombin inhibition, dose response, biochemical, fluorescence polarization, uHTS hits (AID 602369); assay type: functional
[9] = target: 26S proteasome non-ATPase regulatory subunit 14 (Homo sapiens, UniProt O00487); assay: inhibition of proteasome subunit RPN11 – biochemical, fluorescence polarization, uHTS hits, confirmation (AID 602368); assay type: functional
[10] = target: 72 kDa type IV collagenase (Homo sapiens, UniProt P08253); assay: Dose Response validation of uHTS RPN11 inhibitor hits using a MMP-2 Fluorescence assay.; assay type: functional
Cytochrome P450 2C19 = Cytochrome P450 2C19 (Homo sapiens, UniProt P33261); assay: Cytochrome panel assay with activity outcomes. Panel member name: p450-cyp2c19 Compounds with AC50 equal or less than 10 uM are considered active; assay type: functional; conditions: read-out: AC50
Chain of Cytochrome P450 2C19 (P33261 whole entry): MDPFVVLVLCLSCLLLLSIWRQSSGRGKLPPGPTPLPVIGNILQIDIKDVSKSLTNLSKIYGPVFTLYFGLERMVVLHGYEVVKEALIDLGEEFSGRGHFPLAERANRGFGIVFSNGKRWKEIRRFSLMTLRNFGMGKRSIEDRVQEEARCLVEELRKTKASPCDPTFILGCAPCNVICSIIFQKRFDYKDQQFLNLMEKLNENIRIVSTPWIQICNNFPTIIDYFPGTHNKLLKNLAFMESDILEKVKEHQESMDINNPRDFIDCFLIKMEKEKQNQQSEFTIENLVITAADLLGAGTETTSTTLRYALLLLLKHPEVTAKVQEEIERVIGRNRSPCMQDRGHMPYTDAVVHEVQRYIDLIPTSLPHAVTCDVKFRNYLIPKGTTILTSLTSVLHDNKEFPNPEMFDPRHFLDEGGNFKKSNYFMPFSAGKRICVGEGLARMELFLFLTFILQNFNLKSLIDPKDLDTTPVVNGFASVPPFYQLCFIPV

Chain of Cytochrome P450 3A4 (P08684 whole entry): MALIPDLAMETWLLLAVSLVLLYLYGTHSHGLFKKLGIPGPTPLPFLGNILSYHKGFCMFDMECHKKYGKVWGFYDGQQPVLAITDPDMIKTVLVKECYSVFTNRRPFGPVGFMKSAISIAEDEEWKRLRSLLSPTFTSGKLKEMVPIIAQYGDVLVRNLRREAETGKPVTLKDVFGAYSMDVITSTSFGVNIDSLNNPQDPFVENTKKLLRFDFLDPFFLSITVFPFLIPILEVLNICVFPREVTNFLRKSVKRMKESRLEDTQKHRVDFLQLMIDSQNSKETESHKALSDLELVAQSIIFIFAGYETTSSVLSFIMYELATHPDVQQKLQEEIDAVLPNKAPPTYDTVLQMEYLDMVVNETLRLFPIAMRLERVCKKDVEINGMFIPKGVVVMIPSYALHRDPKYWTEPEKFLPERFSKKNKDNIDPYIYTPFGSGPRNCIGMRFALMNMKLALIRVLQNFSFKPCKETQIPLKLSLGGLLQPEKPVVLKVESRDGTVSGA
Chain of Cytochrome P450 2C9 (P11712 whole entry): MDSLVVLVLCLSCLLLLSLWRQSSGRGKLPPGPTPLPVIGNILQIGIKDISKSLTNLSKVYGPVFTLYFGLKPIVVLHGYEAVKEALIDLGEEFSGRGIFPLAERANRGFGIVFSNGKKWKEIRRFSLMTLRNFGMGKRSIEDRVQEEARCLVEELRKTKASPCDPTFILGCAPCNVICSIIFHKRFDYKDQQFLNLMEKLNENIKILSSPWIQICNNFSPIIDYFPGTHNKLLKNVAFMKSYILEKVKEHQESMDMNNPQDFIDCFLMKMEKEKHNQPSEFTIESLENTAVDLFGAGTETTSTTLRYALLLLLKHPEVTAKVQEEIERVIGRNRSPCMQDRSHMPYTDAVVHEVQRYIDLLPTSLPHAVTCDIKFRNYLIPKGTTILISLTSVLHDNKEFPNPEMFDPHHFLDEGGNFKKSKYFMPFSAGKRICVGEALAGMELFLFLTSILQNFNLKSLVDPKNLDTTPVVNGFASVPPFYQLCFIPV
Chain of 26S proteasome non-ATPase regulatory subunit 14 (O00487 whole entry): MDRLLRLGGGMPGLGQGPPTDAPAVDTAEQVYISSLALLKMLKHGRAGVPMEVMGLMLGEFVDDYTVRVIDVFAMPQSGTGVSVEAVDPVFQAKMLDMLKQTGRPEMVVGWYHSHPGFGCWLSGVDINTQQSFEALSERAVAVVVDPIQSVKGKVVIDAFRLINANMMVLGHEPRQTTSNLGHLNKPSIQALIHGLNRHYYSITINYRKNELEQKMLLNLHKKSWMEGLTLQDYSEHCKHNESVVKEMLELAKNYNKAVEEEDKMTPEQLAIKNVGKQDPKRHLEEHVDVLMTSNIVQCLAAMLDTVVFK
Chain of 72 kDa type IV collagenase (P08253 whole entry): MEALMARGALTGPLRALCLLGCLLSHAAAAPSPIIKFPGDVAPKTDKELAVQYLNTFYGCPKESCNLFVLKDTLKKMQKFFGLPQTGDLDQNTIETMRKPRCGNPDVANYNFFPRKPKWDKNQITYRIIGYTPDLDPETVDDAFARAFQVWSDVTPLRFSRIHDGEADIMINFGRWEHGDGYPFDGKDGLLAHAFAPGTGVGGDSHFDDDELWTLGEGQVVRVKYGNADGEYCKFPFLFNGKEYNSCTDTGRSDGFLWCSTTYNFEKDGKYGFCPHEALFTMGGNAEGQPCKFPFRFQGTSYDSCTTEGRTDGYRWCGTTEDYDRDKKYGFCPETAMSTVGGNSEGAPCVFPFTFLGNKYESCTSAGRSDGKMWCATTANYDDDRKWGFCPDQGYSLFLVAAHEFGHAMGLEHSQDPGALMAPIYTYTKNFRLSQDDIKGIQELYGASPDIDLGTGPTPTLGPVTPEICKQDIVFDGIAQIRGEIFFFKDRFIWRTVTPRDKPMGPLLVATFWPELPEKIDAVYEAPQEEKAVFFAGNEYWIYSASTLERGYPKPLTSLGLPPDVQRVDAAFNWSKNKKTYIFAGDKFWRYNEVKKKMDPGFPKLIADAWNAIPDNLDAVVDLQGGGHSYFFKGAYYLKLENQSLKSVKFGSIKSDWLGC

SMILES: CCCCOC(=O)c1ccc(NC(=S)NC(=O)c2c(Cl)cnn2C)cc1
- AC50 (Cytochrome P450 2C9): 39.8 µM (inconclusive)
- AC50 (Cytochrome P450 1A2): 39.8 µM (inconclusive)
- AC50 (Cytochrome P450 3A4): inconclusive

SMILES: CC(=O)Nc1ccc(C(=O)CSc2cc(C)c3cccc(C)c3n2)cc1
- EC50 [1]: > 99 µM (inactive)
- EC50 [2]: > 99 µM (inactive)

SMILES: Cc1cc(C(C)(C)CC(C)(C)C)ccc1OCCOCC[N+](C)(C)Cc1ccccc1
- AC50 [3]: 20.4 µM (active)
- IC50 (Bcl-2-related protein A1): 14.9 µM (active)
- AC50 (INS1): 2.41 µM (active)
- AC50 [4]: 7.56 µM (active)
- IC50 [5]: 21.3 µM (active)
- IC50 [6]: 8.92 µM (active)
- IC50 [7]: 9.49 µM (active)

SMILES: O=C(C1=NN[C@@H]2C(=O)N(c3cccc(C(F)(F)F)c3)C(=O)[C@H]12)c1ccc2ccccc2n1
- EC50 [1]: > 99 µM (inactive)
- EC50 [2]: 47.9 µM (inactive)

SMILES: Cc1noc(NS(=O)(=O)c2ccc(NC(=O)COc3ccc(Cl)cc3Cl)cc2)c1C
- IC50 [8]: 1.08 µM (active)

SMILES: Cc1ccc(C(=O)N2CCN(c3ccc(C(F)(F)F)cn3)CC2)cc1
- AC50 (Cytochrome P450 3A4): inconclusive

SMILES: Cc1cc(C(=O)N/N=C/c2ccc(-c3ccc([N+](=O)[O-])cc3C)o2)[nH]n1
- EC50 [1]: > 99 µM (inactive)
- EC50 [2]: > 99 µM (inactive)

SMILES: C/C(=N\OCC(=O)Nc1ccccc1C(=O)O)c1cccs1
- IC50 [8]: 11 µM (active)

SMILES: Cn1cncc1C#Cc1ccc2cc(C3(O)CCCCC3)oc(=O)c2c1
- IC50 (Prothrombin): 53.3 µM (active)
- IC50 [9]: 32.5 µM (active)
- IC50 [10]: > 100 µM (inactive)

SMILES: O=C(Oc1ccccc1)N1CCC2(CC1)CN(C(c1ccccc1)c1ccccc1)C2
- AC50 (Cytochrome P450 2C9): 39.8 µM (inconclusive)
- AC50 (Cytochrome P450 2C19): 31.6 µM (inconclusive)
- AC50 (Cytochrome P450 3A4): inconclusive

SMILES: C=CCn1c(COc2cccc(C)c2)nnc1SC(C)C(=O)NC1CC1 (stereo unspecified)
- IC50 [5]: > 100 µM (inactive)

SMILES: CN(C(=O)COC(=O)c1ccc([N+](=O)[O-])cc1N)c1ccccc1
- EC50 [1]: > 99 µM (inactive)
- EC50 [2]: > 99 µM (inactive)

SMILES: CCOc1ccccc1C(=O)NC(C)c1ccc2c(c1)OCO2 (stereo unspecified)
- IC50 [8]: 19.1 µM (active)

SMILES: CCc1nnc(NS(=O)(=O)c2ccc(NC(=O)c3cc(Cl)ccc3Cl)cc2)s1
- IC50 [8]: 12.3 µM (active)

SMILES: CNc1cc(-c2ccccc2C(F)(F)F)ncn1
- AC50 (Cytochrome P450 3A4): inconclusive
